Results reported in publication PMC6356585 (Viruses, 2018).
Where a name gives a salt, the structure may show the parent alone. Read-outs that look alike come from different tables or passages of the source.

Columns and labels:
ZIKV SPH [1] = assay: Autophagy compound library screen, ZIKV SPH titer (TCID50) in Vero cells; type: cell-based, Zika virus; conditions: for activity at 10 µM: Zika virus, Vero, read-out: ZIKV SPH Relative Titer in Vero Cells
Vero cells = assay: Cell viability (CellTiter-Glo) of Vero cells; type: cell-based
ZIKV SPH [2] = assay: Autophagy compound library screen, ZIKV SPH titer (TCID50) in C6/36 cells; type: cell-based, Zika virus; conditions: for activity at 10 µM: Zika virus, read-out: ZIKV SPH Relative Titer in C6/36 Cells
C6/36 cells = type: cell-based, Ae. albopictus
[3] = 10 µM compound, MOI 0.1, 40 h, TCID50, ± SEM, three independent trials
[4] = 10 µM compound, 40 h, CellTiter-Glo, ± SEM, three independent trials
[5] = 10 µM compound, MOI 0.1, 96 h, TCID50, ± SEM, three independent trials
[6] = 10 µM compound, 96 h, CellTiter-Glo, ± SEM, three independent trials
[7] = C6/36, 10 µM compound, MOI 0.1, 96 h, TCID50, ± SEM, three independent trials

## Cc1cccc(Nc2nc(-c3ccncc3)cs2)c1 [STF-62247]
ZIKV SPH [1]; [3]
  ZIKV SPH Relative Titer in Vero Cells: 45.0 ± 21.4% of untreated control
Vero cells; [4]
  Vero Viability: 77.3 ± 11.7% of untreated control
ZIKV SPH [2]; [5]
  ZIKV SPH Relative Titer in C6/36 Cells: 169.8 ± 45.9% of untreated control
C6/36 cells; [6]
  C6/36 Viability: 49 ± 9.3% of untreated control

## CNC(=O)c1cc(Oc2ccc(NC(=O)Nc3ccc(Cl)c(C(F)(F)F)c3)cc2)ccn1 [Sorafenib tosylate]
ZIKV SPH [1]; [3]
  activity at 10 µM: 5.8 ± 1.8%
Vero cells; [4]
  Vero Viability: 58.3 ± 9.9% of untreated control
ZIKV SPH [2]; [7]
  activity at 10 µM: 9.4 ± 8.8%
C6/36 cells; [6]
  C6/36 Viability: 23 ± 8.8% of untreated control

## Cc1ccc(C(=O)Nc2ccc(S(=O)(=O)[O-])c3cc(S(=O)(=O)[O-])cc(S(=O)(=O)[O-])c23)cc1NC(=O)c1cccc(NC(=O)Nc2cccc(C(=O)Nc3cc(C(=O)Nc4ccc(S(=O)(=O)[O-])c5cc(S(=O)(=O)[O-])cc(S(=O)(=O)[O-])c45)ccc3C)c2)c1.[Na+].[Na+].[Na+].[Na+].[Na+].[Na+] [Suramin·6Na]
ZIKV SPH [1]; [3]
  ZIKV SPH Relative Titer in Vero Cells: 107.4 ± 44.8% of untreated control
Vero cells; 10 µM
  Vero Viability: 92.0 ± 1.2% of untreated control
ZIKV SPH [2]; [5]
  ZIKV SPH Relative Titer in C6/36 Cells: 86.6 ± 23.2% of untreated control
C6/36 cells; [6]
  C6/36 Viability: 86 ± 8.4% of untreated control

## O=C(CC(=O)C(F)(F)F)c1cccs1 [TTFA]
ZIKV SPH [1]; [3]
  ZIKV SPH Relative Titer in Vero Cells: 24.4 ± 7.6% of untreated control
Vero cells; [4]
  Vero Viability: 90.0 ± 3.5% of untreated control
ZIKV SPH [2]; [5]
  ZIKV SPH Relative Titer in C6/36 Cells: 72.8 ± 9.6% of untreated control
C6/36 cells; [6]
  C6/36 Viability: 78 ± 19.9% of untreated control

## OC[C@H]1O[C@H](O[C@H]2O[C@H](CO)[C@@H](O)[C@H](O)[C@H]2O)[C@H](O)[C@@H](O)[C@@H]1O [Trehalose]
ZIKV SPH [1]; [3]
  ZIKV SPH Relative Titer in Vero Cells: not able to reduce ZIKV titers
Vero cells; 10 µM
  Vero Viability: 97.7 ± 1.5% of untreated control
ZIKV SPH [2]; [5]
  ZIKV SPH Relative Titer in C6/36 Cells: not able to reduce ZIKV titers
ZIKV SPH [2]; [7]
  activity at 10 µM: 246 ± 101%
C6/36 cells; 10 µM
  C6/36 Viability: 99 ± 2.9% of untreated control

## CN1CCN(CCCN2c3ccccc3Sc3ccc(C(F)(F)F)cc32)CC1.Cl.Cl [Trifluoperazine·2HCl]
ZIKV SPH [1]; [3]
  ZIKV SPH Relative Titer in Vero Cells: 2.8 ± 0.7% of untreated control
Vero cells; 10 µM
  Vero Viability: 51.0 ± 22.1% of untreated control
ZIKV SPH [2]; [5]
  ZIKV SPH Relative Titer in C6/36 Cells: 0.3 ± 0.3% of untreated control
C6/36 cells; [6]
  C6/36 Viability: 10 ± 3.8% of untreated control

## COC[C@H]1OC(=O)c2coc3c2[C@@]1(C)C1=C(C3=O)[C@@H]2CCC(=O)[C@@]2(C)C[C@H]1OC(C)=O [Wortmannin]
ZIKV SPH [1]; 40 h
  activity at 10 µM: 46.9 ± 9%
Vero cells; [4]
  Vero Viability: 79.0 ± 3.1% of untreated control
ZIKV SPH [2]; C6/36, 96 h
  activity at 10 µM: 190 ± 57.8%
C6/36 cells; 10 µM
  C6/36 Viability: 105 ± 5.5% of untreated control

## Tunicamycin
ZIKV SPH [1]; [3]
  ZIKV SPH Relative Titer in Vero Cells: 0.5 ± 0.5% of untreated control
Vero cells; [4]
  Vero Viability: 56.3 ± 8.7% of untreated control
ZIKV SPH [2]; [5]
  ZIKV SPH Relative Titer in C6/36 Cells: 1.8 ± 0.8% of untreated control
C6/36 cells; [6]
  C6/36 Viability: 47 ± 7.6% of untreated control
